Test results reported in patent publication US9062070B2, “Inhibitors of the renal outer medullary potassium channel” (Merck Sharp & Dohme Corp., priority 2011, dated 2015).

Assays:
[1] = target: hROMK (hKir1.1) (Homo sapiens (Human), UniProt P48048); assay: Thallium Flux Assay (ROMK channel functional thallium flux, FLIPR-Tetra); format: cell-based; conditions: HEK293 cells stably expressing hROMK (hKir1.1)
Experimental: HEK293 cells stably expressing hROMK (hKir1.1) were grown at 37° C. in a 10% CO2 humidified incubator in complete growth media: Dulbecco's Modified Eagle Medium supplemented with non-essential amino acids, Penicillin/Streptomycin/Glutamine, G418 and FBS. At >80% confluency, aspirate the media from the flask and rinse with 10 mL Calcium/Magnesium-free PBS. Add 5 mL of 1× trypsin (prepared in Ca/Mg Free PBS) to T-225 flask and return flask to 37° C./CO2 incubator for 2-3 minutes. To dislodge the cell, gently bang the side of the flask with your hand. Triturate the cells completely and then transfer the cells to 25 mL complete media. Centrifuge at 1,500 rpm for 6 min followed by resuspension in complete growth media and determine cell concentration. For typical re-seeding, 4E6 cells/T-225 flask will attain>80% confluency in 4 days. Under ideal growth conditions and appropriate tissue culture practices, this cell line is stable for 40-45 passages.
• FluxOR™ Reagent (Component A) • FluxOR™ Assay Buffer (Component B)—10× Concentrate • PowerLoad™ Concentrate (Component C)—100× Concentrate • Probenecid (Component D)—Lyophilized sample is kept at −20° C. Water soluble, 100× after solubilization in 1 mL water. Store at 4° C. • FluxOR™ Chloride-free Buffer (Component E)—5× Concentrate • Potassium sulfate (K2SO4) Concentrate (Component F)—125 mM in water. Store at 4° C. • Thallium sulfate (Tl2SO4) Concentrate (Component G)—50 mM in water. Store at 4° C. • DMSO (dimethyl sulfoxide, Component H)—1 mL (100%) Reagent Preparation: FluxOR Working Solutions • 1000× FluxOR™ Reagent: Reconstitute a vial of component A in 100 μl DMSO; Mix well; Store 10 μl aliquots at −20° C. • 1× FluxOR™ Assay Buffer: Dilute Component B 10-fold with water; Adjust pH to 7.4 with Hepes/NaOH; Filter and store at 4° C. • Probenecid/Assay Buffer: 100 mL of 1× FluxOR™ Assay Buffer; 1 mL of reconstituted component D; Store at 4° C. • Loading Buffer (per microplate): 10 μl 1000× FluxOR™ Reagent; 100 μl component C; 10 mL Probenecid/Assay Buffer • Compound Buffer (per microplate): 20 mL Probenecid/Assay Buffer; 0.3 mM ouabain (10 mM ouabain in water can be stored in amber bottle/aluminum foil at room temperature); Test compound • 1× FluxOR™ Chloride-Free Buffer: Prepare 1× working solution in water. Can be stored at room temperature • Stimulant Buffer (prepared at 5× final concentration in 1× FluxOR™ Chloride-Free Buffer): 7.5 mM Thallium sulfate and 0.75 mM Potassium sulfate (to give a final assay concentration of 3 mM Thallium/0.3 mM Potassium). Store at 4° C. when not in use. If kept sterile, this solution is good for months. Assay Protocol—
The ROMK channel functional thallium flux assay is performed in 384 wells, using the FLIPR-Tetra instrument. HEK-hKir1.1 cells are seeded in Poly-D-Lysine microplates and kept in a 37° C.-10% CO2 incubator overnight. On the day of the experiment, the growth media is replaced with the FluxOR™ reagent loading buffer and incubated, protected from light, at ambient temperature (23-25° C.) for 90 min. The loading buffer is replaced with assay buffer±test compound followed by 30 min incubation at ambient temperature, where the Thallium/Potassium stimulant is added to the microplate.
• 1. Seed HEK-hKir1.1 cells (50 μl at 20,000 cells/well) in 384-well PDL coated Microplates • 2. Allow cells to adhere overnight in humidified 37° C./10% CO2 incubator • 3. Completely remove cell growth media from microplate and replace with 25 μl loading buffer • 4. Incubate Microplate at room temperature, protected form light, for 90 min • 5. Remove loading buffer and replace with 25 μl 1× Assay Buffer±test compound. • 6. Incubate microplate at room temperature, protected form light, for 30 min • 7. At FLIPR-Tetra 384: Add stimulant (Thallium/Potassium) solution to microplate and monitor fluorescence. Excitation=400 nm, Emission=460 & 580 nm. Collect data for ˜10 min. Data Calculation—

[2] = target: Kir1.1 (ROMK1) (Homo sapiens (Human), UniProt P48048); assay: Electrophysiology Assay (whole cell voltage clamp, IonWorks Quattro); format: cell-based; conditions: Chinese hamster ovary cells stably expressing Kir1.1; block during voltage step to 0 mV
Chain of Kir1.1 (ROMK1) (P48048 whole entry): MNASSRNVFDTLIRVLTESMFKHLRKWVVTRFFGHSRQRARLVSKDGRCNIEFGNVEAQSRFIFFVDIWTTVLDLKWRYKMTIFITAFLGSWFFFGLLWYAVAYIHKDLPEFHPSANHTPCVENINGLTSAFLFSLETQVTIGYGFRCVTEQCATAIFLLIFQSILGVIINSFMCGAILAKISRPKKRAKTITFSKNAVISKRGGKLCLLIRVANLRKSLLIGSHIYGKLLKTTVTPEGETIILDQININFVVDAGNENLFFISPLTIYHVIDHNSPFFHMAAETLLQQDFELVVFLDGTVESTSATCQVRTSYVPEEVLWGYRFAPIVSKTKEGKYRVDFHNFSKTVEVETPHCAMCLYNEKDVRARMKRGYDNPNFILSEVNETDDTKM
Experimental: Block of Kir1.1 (ROMK1) currents was examined by whole cell voltage clamp (Hamill et. al. […] Prior to an experiment, Kir1.1 expression was induced by overnight incubation with 1 mM sodium butyrate. […] After centrifugation, the cell pellet was resuspended in approximately 4.0 mL of bath solution and placed in the IonWorks instrument. The intracellular solution consisted of (in mM): 80 K gluconate, 40 KCl, 20 KF, 3.2 MgCl2, 3 EGTA, 5 Hepes, pH 7.4. […] Amphotericin B (Sigma A-4888) was prepared as a 40 mg/mL solution in DMSO. Voltage protocols and current recordings were performed using the IonWorks HT software/hardware system. […] No correction for liquid junction potentials was used. The test pulse, consisting of a 100 ms step to 0 mV from a holding potential of −70 mV, followed by a 100 ms voltage ramp from −70 mV to +70 mV, was applied before and after a 6 min compound incubation period. Test compounds were prepared by diluting DMSO stock solutions into the bath solution at 3× the final concentration and placed in the instrument in 96-well polypropylene plates. Current amplitudes were measured using the IonWorks software. To assess compound potency, the fractional block during the voltage step to 0 mV was calculated in Microsoft Excel (Microsoft, Redmond, Calif.), and dose-response curves were fitted with Igor Pro 4.0 (WaveMetrics, Lake Oswego, Oreg.).

Chain of hROMK (hKir1.1) (P48048 whole entry): as above

Row | Structure (SMILES) | IC50 [1] [nM] | IC50 [2] [nM]
1 | N#Cc1c(F)ccc([C@@H]2CN3CCN(C(=O)C4CCc5nc(-n6cnnn6)ccc54)C[C@@H]3CO2)c1F (some centres unmarked) [Example 20] | 230 | 80
2 | N#Cc1c(F)ccc([C@H]2CN3CCN(C(=O)C4CCc5nc(-n6cnnn6)ccc54)C[C@@H]3CO2)c1F (some centres unmarked) [Example 21] | 240 | 80
3 | N#Cc1c(F)ccc([C@@H]2CN3CCN(C(=O)C4CCc5cc(-n6cnnn6)ncc54)C[C@H]3CO2)c1F (some centres unmarked) [Example 22] | 160 | 40
4 | N#Cc1c(F)ccc([C@H]2CN3CCN(C(=O)C4CCc5cc(-n6cnnn6)ncc54)C[C@@H]3CO2)c1F (some centres unmarked) [Example 23] | 540 | 150
5 | N#Cc1c(F)ccc([C@@H]2CN3CCN(C(=O)C4CCc5cc(-n6cnnn6)ncc54)C[C@@H]3CO2)c1F (some centres unmarked) [Example 24] | 110 | 200
6 | N#Cc1c(F)ccc([C@H]2CN3CCN(C(=O)C4CCc5cc(-n6cnnn6)ncc54)C[C@H]3CO2)c1F (some centres unmarked) [Example 25] | 100 | 60
7 | N#Cc1c(F)ccc([C@@H]2CN3CCN(C(=O)C4CCc5nc(-n6cnnn6)ccc54)C[C@H]3CO2)c1Cl (some centres unmarked) [Example 26] | 220 | 110
8 | N#Cc1c(F)ccc([C@@H]2CN3CCN(C(=O)C4CCc5nc(-n6cnnn6)ccc54)C[C@H]3CO2)c1Cl (some centres unmarked) [Example 27] | 230 | 120
9 | N#Cc1c(F)ccc([C@H]2CN3CCN(C(=O)C4CCc5nc(-n6cnnn6)ccc54)C[C@H]3CO2)c1Cl (some centres unmarked) [Example 28] | 220 | 120
10 | N#Cc1c(F)ccc([C@H]2CN3CCN(C(=O)C4CCc5nc(-n6cnnn6)ccc54)C[C@H]3CO2)c1Cl (some centres unmarked) [Example 29] | 450 | 140
11 | N#Cc1c(F)ccc([C@H]2CN3CCN(C(=O)C4CCc5nc(-n6cnnn6)ccc54)C[C@@H]3CO2)c1Cl (some centres unmarked) [Example 30] | 290 | 190
12 | N#Cc1c(F)ccc([C@@H]2CN3CCN(C(=O)C4CCc5cc(-n6cnnn6)ncc54)C[C@H]3CO2)c1Cl (some centres unmarked) [Example 31] | 110 | 80
13 | N#Cc1c(F)ccc([C@H]2CN3CCN(C(=O)C4CCc5cc(-n6cnnn6)ncc54)C[C@H]3CO2)c1Cl (some centres unmarked) [Example 32] | 130 | 70
14 | Cc1c([C@H]2CN3CCN(C(=O)C4CCc5nc(-n6cnnn6)ccc54)C[C@@H]3CO2)ccc(F)c1C#N (some centres unmarked) [Example 34] | 120 | 160
15 | Cc1c([C@H]2CN3CCN(C(=O)C4CCc5cc(-n6cnnn6)ncc54)C[C@H]3CO2)ccc(F)c1C#N (some centres unmarked) [Example 36] | 660 | 140
16 | Cc1c([C@@H]2CN3CCN(C(=O)C4CCc5cc(-n6cnnn6)cnc54)C[C@H]3CO2)ccc(F)c1C#N (some centres unmarked) [Example 37] | 810 | 240
17 | Cc1c([C@@H]2CN3CCN(C(=O)C4CCc5cc(-n6cnnn6)cnc54)C[C@H]3CO2)ccc(F)c1C#N (some centres unmarked) [Example 38] | 900 | 280

Row | Structure (SMILES) | IC50 [1] [nM] | IC50 [2] [nM]
18 | Cc1c([C@H]2CN3CCN(C(=O)C4CCc5cc(-n6cnnn6)cnc54)C[C@@H]3CO2)ccc(F)c1C#N (some centres unmarked) [Example 39] | 600 | 390
19 | Cc1c([C@H]2CN3CCN(C(=O)C4CCc5cc(-n6cnnn6)ncc54)C[C@@H]3CO2)ccc(F)c1C#N (some centres unmarked) [Example 40] | 270 | 120
20 | Cc1c([C@H]2CN3CCN(C(=O)C4CCc5cc(-n6cnnn6)ncc54)C[C@@H]3CO2)ccc(F)c1C#N (some centres unmarked) [Example 41] | 720 | 110
21 | Cc1c([C@@H]2CN3CCN(C(=O)C4CCc5cc(-n6cnnn6)ncc54)C[C@@H]3CO2)ccc(F)c1C#N (some centres unmarked) [Example 42] | 350 | 130
22 | Cc1c([C@@H]2CN3CCN(C(=O)C4CCc5cc(-n6cnnn6)ncc54)C[C@@H]3CO2)ccc(F)c1C#N (some centres unmarked) [Example 43] | 850 | 130
23 | Cc1c([C@@H]2CN3CCN(C(=O)C4CCc5cc(-n6cnnn6)ncc54)C[C@H]3CO2)ccc(F)c1C#N (some centres unmarked) [Example 44] | 170 | 170
24 | O=C1OCCc2cc([C@@H]3CN4CCN(C(=O)C5CCc6cc(-n7cnnn7)ncc65)C[C@H]4CO3)ccc21 (some centres unmarked) [Example 45] | 600 | 220
25 | COc1cc([C@H]2CN3CCN(C(=O)C4CCc5nc(-n6cnnn6)ccc54)C[C@H]3CO2)ccc1C#N (some centres unmarked) [Example 51] | 580 | 190
26 | COc1c([C@@H]2CN3CCN(C(=O)C4CCc5cc(-n6cnnn6)ncc54)C[C@H]3CO2)ccc(F)c1C#N (some centres unmarked) [Example 52] | 420 | 220
27 | COc1cc([C@@H]2CN3CCN(C(=O)C4CCc5nc(-n6cnnn6)ccc54)C[C@@H]3CO2)ccc1C#N (some centres unmarked) [Example 63] | 740 | 270
28 | N#Cc1c(F)ccc([C@@H]2CN3CCN(C(=O)C4CCc5nc(-n6cnnn6)ccc54)C[C@@H]3CO2)c1Cl (some centres unmarked) [Example 64] | 120 | 100
29 | N#Cc1c(F)ccc([C@@H]2CN3CCN(C(=O)C4CCc5nc(-n6cnnn6)ccc54)C[C@@H]3CO2)c1Cl (some centres unmarked) [Example 65] | 340 | 140
30 | N#Cc1cc([C@@H]2CN3CCN(C(=O)C4CCc5cc(-n6cnnn6)ncc54)C[C@H]3CO2)c(F)cc1F (some centres unmarked) [Example 68] | 200 | 200
31 | COc1c([C@@H]2CN3CCN(C(=O)C4CCc5cc(-n6cnnn6)ncc54)C[C@H]3CO2)ccc(C#N)c1F (some centres unmarked) [Example 70] | 500 | 100
32 | COc1ccc([C@H]2CN3CCN(C(=O)C4CCc5cc(-n6cnnn6)ncc54)C[C@@H]3CO2)c(C)c1C#N (some centres unmarked) [Example 74] | 500 | 280
33 | Cc1c([C@@H]2CN3CCN(C(=O)C4Cc5cnc(-n6cnnn6)nc5C4)C[C@@H]3CO2)ccc(F)c1C#N (some centres unmarked) [Example 75] | 250 | 150
34 | Cc1c([C@H]2CN3CCN(C(=O)C4Cc5cnc(-n6cnnn6)nc5C4)C[C@H]3CO2)ccc(F)c1C#N (some centres unmarked) [Example 76] | 460 | 130
